Source: PMC9023740, “Mucin-Type O-Glycosylation Proximal to β-Secretase Cleavage Site Affects APP Processing and Aggregation Fate” (Frontiers in Chemistry, 2022)

Experiments:
[1] = biological target: T1, Aβ40 (Homo sapiens, UniProt P05067); assay: ThT aggregation kinetics assay of Aβ40 with APP (glyco)peptides; conditions: 50 mM phosphate buffer pH 7.4, 20 µM ThT, 37°C
T1 construct: Aβ40 peptide was synthesized on a PS3 solid phase peptide synthesizer; made in house; host or cells: chemical solid-phase peptide synthesis (Fmoc), no expression host
Description: Lyophilized peptide powder was dissolved in aqueous NaOH solution (2 mM), and the pH was adjusted to ∼11 by using 100 mM NaOH solution. The solution was sonicated for 1 h in an ice−water bath and then filtered through a 0.22 μm filter (Millipore) and kept on ice before use. The concentration of the peptide solution was determined by using the tyrosine UV absorbance at 280 nm (ε = 1280 M^−1 cm^−1).
The aggregation kinetics of Aβ40 in the absence and presence of APP (glyco)peptides was performed using ThT binding assay. The monomerized Aβ40 peptide solution was diluted to a final concentration of 10 µM in 50 mM phosphate buffer (pH 7.4) and 20 µM ThT dye. For the co-incubation assays with APP (glyco)peptides, APP stock solutions of 120 µM were added to the prepared Aβ40 for final (glyco) peptide concentrations of 10 µM or 50 µM and Aβ40 concentration of 10 µM in 50 mM phosphate buffer (pH 7.4) with 20 µM ThT dye. […] The plate was sealed with a microplate cover and loaded into a Gemini SpectraMax EM fluorescence plate reader (Molecular Devices, Sunnyvale, CA) and incubated at 37°C. The ThT fluorescence was measured from the bottom of the plate at 10 min intervals, with 5 s of shaking, and with an excitation and emission wavelengths of 440 and 480 nm, respectively. […]
°C. ThT fluorescence was measured in 10 minute intervals.

[2] = biological target: T2, Recombinant human BACE-1 (rhBACE-1) (Homo sapiens, UniProt P56817); assay: Proteolytic cleavage of APP (glyco)peptides by BACE-1, RP-HPLC peak integration; type: biochemical; conditions: 100 μM substrate, 50 nM rhBACE-1, 0.1 M sodium acetate pH 4.0, 24 h, 37°C, dark; RP-HPLC peak integration at 214 nm, averaged from two injections, SD <5%
T2 construct: purchased R&D Systems #ES004 and #931-AS, respectively (so in the source)
Description: All APP-based substrates were prepared as 10 mM stocks in DMSO. Before proteolysis, the activity of BACE-1 was verified by the reaction with the fluorogenic BACE-1substrate Mca-[…](Dnp)RR-NH2 ([Koike et al., 1999]) as per the manufacturer’s instructions. For the proteolysis assay, APP-based substrates were diluted in BACE-1 activity buffer (0.1 M sodium acetate, pH 4.0) to the final assay concentration of 100 μM. BACE-1 was diluted to 50 nM final concentration. Reactions were incubated for 24 h at 37°C in the dark. After the incubation period, the enzyme cleavage solutions containing APP-based substrates and BACE-1 were analyzed using the analytical RP-HPLC method on the Aeris C18 column with 0.1% TFA in water (A) and 0.1% TFA in acetonitrile (B) as eluents and 0–60% B as the elution gradient over 30 min with a flow rate of 0.8 ml/min, and detection at 214 nm or the Vydac Denali C18 column with 0.1% TFA in water (A) and 0.1% TFA in acetonitrile (B) as eluents and 0–60% B as the elution gradient over 30 min with a flow rate of 1 ml/min, and detection at 214 nm. The identity of intact and cleaved (N- and C-terminal) fragments of (glyco)peptides in the absence and presence of BACE-1 (β-secretase) was confirmed by MALDI-TOF and their percentages were evaluated by the integration of the RP-HPLC peaks (averaged from two injections).
Glycosylation can alter substrate recognition and impact enzyme activity in either a positive (enhancing) or negative (inhibiting) manner ([Goettig, 2016]; [Goth et al., 2018]). The mucin-type O-linked glycosylation of a protein may not only affect its conformation but also affect its transport and localization in the cell ([Matsuura et al., 1989]; [Chen et al., 2002]). Proteases are highly regulated by post-translational modifications and drive fate, localization, and activity of many proteins ([Bond, 2019]). Certain mutations can also affect the subcellular localization of the cleavage event by crucial proteases and mediate a different cellular mechanism for the protein ([Haass et al., 1995]). […] Therefore, similar enzyme cleavage assays with BACE-1 were set up to explore the effect of the Swedish mutation, length of the amino acid sequence, glycan position and valency on the proteolytic susceptibility of 3–12. BACE1 produced two fragments upon cleavage of (glyco)peptides, for which yields were determined after 24 h treatment. The yields of intact peptide and fragments were evaluated by the RP-HPLC peaks integration (Table 3, and the Supplementary Material S20–S32).
3. Enzyme cleavage assays with APP (glyco)peptides 3-12 by RP-HPLC and MALDI-TOF MS
For the BACE1 enzyme cleavage assay, APP-based (glyco)peptide substrates were diluted in BACE1 activity buffer and incubated with BACE1 for 24 h at 37 °C in the dark. After the incubation period, the enzyme cleavage solutions containing APP-based (glyco)peptide substrates and BACE1 were analyzed using analytical RP-HPLC.
RP-HPLC gradient on Phenomenex Aeris Peptide C18 column (150 x 4.6 mm, 3.6 µm, 100Å):
Eluents were 0.1% TFA in water (A) and 0.1% TFA in acetonitrile (B). The elution gradient was 0-60%B in 30 minutes with a flow rate of 0.8 mL/min. Detection was at λ = 214 nm.
S*/T*= Ser(-α-GalNAc) 1/Thr(-α-GalNAc) 2
(a) APP665-680, 3 in activity buffer
(b) APP665-680 (3) + BACE1 in activity buffer […]

[3] = CD spectroscopy, secondary structure content by BeStSel; type: physicochemical; conditions: for RC (%) random coil / α-H (%) α-helix / β-AP (%) anti-parallel β-sheet / β-P (%) parallel β-sheet / β-T (%) β-turn: CD, BeStSel, 0.065 mg/ml, 25°C
Description: All (glyco)peptides were analyzed for their secondary structure using circular dichroism (CD) spectroscopy on a Jasco-810 spectropolarimeter (Jasco, Easton, MD) in three solvent systems: water, 10 mM sodium phosphate buffer (pH 7.4), and 50% trifluoroethanol (TFE) in water (v/v) mixture. The CD spectra were recorded using a quartz cell of 1 mm optical path length over a wavelength range of […] with a scanning speed of 100 nm/min and a response time of 4 s at 25°C. A concentration of 0.065 mg/ml, determined using the analytical RP-HPLC method, gave the […] signal-to-noise ratio for all (glyco)peptides. All spectra were baseline-corrected to account for the signal contribution from solvent and then converted into molar ellipticity (deg cm^2 dmol^−1) ([Sreerama and Woody, 2000]). Lastly, the percentages of all secondary structures were determined using the BeStSel method ([Micsonai et al., 2018]; [Singh et al., 2021]).
To study the role of O-glycosylation on the conformation of APP glycopeptides, circular dichroism (CD) spectroscopy was used to probe the secondary structure in three different solvents, water, sodium phosphate buffer (10 mM, pH 7.4), and 50% trifluoroethanol (TFE) in water (v/v) (Figure 1). The spectra were further analysed for secondary structure estimations by Beta Structure Selection (BeStSel) method, specifically designed for the analysis of beta sheet-rich proteins (Table 2) ([Micsonai et al., 2015], [2018]).

[4] = (B) 10 mM sodium phosphate buffer, pH 7.4

T2 sequence (P56817 46-457 limits assumed): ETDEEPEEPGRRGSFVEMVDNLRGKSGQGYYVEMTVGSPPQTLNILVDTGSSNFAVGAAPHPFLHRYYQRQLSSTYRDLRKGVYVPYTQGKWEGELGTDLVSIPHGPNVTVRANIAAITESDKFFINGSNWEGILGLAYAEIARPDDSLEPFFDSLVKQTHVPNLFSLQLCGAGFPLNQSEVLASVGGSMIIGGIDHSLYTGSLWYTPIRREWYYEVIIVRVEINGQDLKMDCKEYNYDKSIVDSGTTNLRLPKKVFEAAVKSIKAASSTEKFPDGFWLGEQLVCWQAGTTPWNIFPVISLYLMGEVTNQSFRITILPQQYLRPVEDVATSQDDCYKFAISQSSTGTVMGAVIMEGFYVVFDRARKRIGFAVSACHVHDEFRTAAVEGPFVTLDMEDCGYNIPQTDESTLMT
T1 sequence (P05067 672-711 limits assumed): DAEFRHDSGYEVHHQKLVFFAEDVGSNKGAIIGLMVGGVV

In the case of `CC(=O)N[C@H]1C(O)O[C@H](CO)[C@H](O)[C@@H]1O` (mixture of isomers) [GalNAc, N-acetylgalactosamine], the “Δt50 (t50 with additive - Aβ40 t50)” value ([1]; additive 10 and 50 µM, Aβ40 10 µM) is reported as < 0.5 h.
In the case of “IKT*EEIS*EVKM∼DAEFRHDSG [compound 9, native APP 661-680 glycopeptide with O-GalNAc on Thr^663 and Ser^667]”, the “BACE-1 activity, Cleaved (%)” value [2] is reported as 4.12%, the “BACE-1 activity, Recovered (%)” value [2] is reported as 95.9% and the “RC (%) random coil” value ([3]; (A) water) is reported as 22.4%. For the same compound, the “α-H (%) α-helix” value ([3]; (A) water) was 12.8%, the “β-AP (%) anti-parallel β-sheet” value ([3]; (A) water) was 48.2% and the “β-P (%) parallel β-sheet” value ([3]; (A) water) was 0.0%. The “β-T (%) β-turn” value ([3]; (A) water) was 16.6%, the “RC (%) random coil” value [3, 4] was 48.7% and the “α-H (%) α-helix” value [3, 4] was 9.5%. The “β-AP (%) anti-parallel β-sheet” value [3, 4] was 24.6%, the “β-P (%) parallel β-sheet” value [3, 4] was 0.0% and the “β-T (%) β-turn” value [3, 4] was 17.1%. For the same compound, the “RC (%) random coil” value ([3]; (C) TFE/water = 1:1 (v/v)) was 0.0%, the “α-H (%) α-helix” value ([3]; (C) TFE/water = 1:1 (v/v)) was 94.4% and the “β-AP (%) anti-parallel β-sheet” value ([3]; (C) TFE/water = 1:1 (v/v)) was 0.0%. For the same compound, the “β-P (%) parallel β-sheet” value ([3]; (C) TFE/water = 1:1 (v/v)) was 0.0%, the “β-T (%) β-turn” value ([3]; (C) TFE/water = 1:1 (v/v)) was 5.6% and the “β-structure (anti-parallel β-sheet, parallel β-sheet, and β-turn)” value ([3]; water, sum of BeStSel contents) was 64.8%.
For “Aβ40: amyloid-β 40 peptide made by Fmoc SPPS, model peptide for studying protein aggregation”, the “half time (t 50) of the growth phase of Aβ40 amyloidogenesis” value ([1]; Aβ40 10 μM alone, triplicate) was “approximately 8 h”.
For `CC[C@H](C)[C@H](N)C(=O)N[C@@H](CCCCN)C(=O)N[C@H](C(=O)N[C@@H](CCC(=O)O)C(=O)N[C@@H](CCC(=O)O)C(=O)N[C@H](C(=O)N[C@@H](CO[C@H]1O[C@H](CO)[C@H](O)[C@H](O)[C@H]1NC(C)=O)C(=O)N[C@@H](CCC(=O)O)C(=O)N[C@H](C(=O)N[C@@H](CC(N)=O)C(=O)N[C@@H](CC(C)C)C(=O)N[C@@H](CC(=O)O)C(=O)N[C@@H](C)C(=O)N[C@@H](CCC(=O)O)C(=O)N[C@@H](Cc1ccccc1)C(=O)N[C@@H](CCCNC(=N)N)C(=O)N[C@@H](Cc1c[nH]cn1)C(=O)N[C@@H](CC(=O)O)C(=O)N[C@@H](CO)C(=O)NCC(N)=O)C(C)C)[C@@H](C)CC)[C@@H](C)O[C@H]1O[C@H](CO)[C@H](O)[C@H](O)[C@H]1NC(C)=O` [compound 12], the “BACE-1 activity, Cleaved (%)” value [2] was 96.1% and the “BACE-1 activity, Recovered (%)” value [2] was 3.90%.
For `CC[C@H](C)[C@H](NC(=O)[C@@H](N)CCC(=O)O)C(=O)N[C@@H](CO)C(=O)N[C@@H](CCC(=O)O)C(=O)N[C@H](C(=O)N[C@@H](CC(N)=O)C(=O)N[C@@H](CC(C)C)C(=O)N[C@@H](CC(=O)O)C(=O)N[C@@H](C)C(=O)N[C@@H](CCC(=O)O)C(=O)N[C@@H](Cc1ccccc1)C(=O)N[C@@H](CCCNC(=N)N)C(=O)N[C@@H](Cc1c[nH]cn1)C(=O)N[C@@H](CC(=O)O)C(=O)N[C@@H](CO)C(=O)NCC(N)=O)C(C)C` [compound 5], the “BACE-1 activity, Cleaved (%)” value [2] was 96.2% and the “BACE-1 activity, Recovered (%)” value [2] was 3.82%.
With `CC[C@H](C)[C@H](NC(=O)[C@@H](N)CCC(=O)O)C(=O)N[C@@H](CO[C@H]1O[C@H](CO)[C@H](O)[C@H](O)[C@H]1NC(C)=O)C(=O)N[C@@H](CCC(=O)O)C(=O)N[C@H](C(=O)N[C@@H](CC(N)=O)C(=O)N[C@@H](CC(C)C)C(=O)N[C@@H](CC(=O)O)C(=O)N[C@@H](C)C(=O)N[C@@H](CCC(=O)O)C(=O)N[C@@H](Cc1ccccc1)C(=O)N[C@@H](CCCNC(=N)N)C(=O)N[C@@H](Cc1c[nH]cn1)C(=O)N[C@@H](CC(=O)O)C(=O)N[C@@H](CO)C(=O)NCC(N)=O)C(C)C` [compound 6] the “BACE-1 activity, Cleaved (%)” value [2] was 93.0% and the “BACE-1 activity, Recovered (%)” value [2] was 7.02%.
